Results on two molecules are retold here after patent US20070061899A1, “Transgenic mammal with constitutive, tissue-specific cytokine expression and use as a cancer model” (THE TRUSTEES OF COLUMBIA UNIVERSITY IN THE CITY OF NEW YORK, priority 2005, published 2007).

In one experiment the test system is fibrosarcoma. The settings on record: control mice, systemic treatments; cited from earlier work.
A further experiment relates to B16 melanoma. The conditions noted are these: murine B16 model, cited from earlier work.
The test system of experiment [1] is IL-1β mice and C57BL/6J mice infected with Helicobacter felis. The experiment in a line: IL-1RA treatment of bone marrow transplanted, Helicobacter felis infected mice. The format is in vivo, mouse. The conditions noted are these: hIL-1RA by osmotic minipump, 100 mg/kg/day for 30 days; eight weeks after H. felis infection. From the text:
Bone marrow transplantation, and Helicobacter felis infection and IL-RA treatment. Bone marrow was isolated from the femurs and tibias of 6-8 week old C57BL/6-TgN [ACThEGFP] (GFP) mice. Total bone marrow was washed, triturated using a 20 gauge needle and passed through a 40 sum nylon mesh cell strainer (Becton Dickson) to produce a single cell suspension in PBS. Recipient IL-β mice and C57BL/6J mice were irradiated with 900 rads from a cesium 137-gamma cell irradiator, reconstituted with 3×10^6 donor marrow cells via a single tail vein injection, and used for experiments after 2 weeks of recovery. The overall level of engraftment was 60-80% as assessed by analysis of β-galactosidase or GFP in peripheral leukocytes. Non-transplanted IL-β mice and C57BL/6 mice served as controls for all injury models. Helicobacter felis (strain 49179) was obtained from the […] (Rockville, Md.), grown as recommended and bacteria enumerated as previously described (Houghton 2004). Two weeks after transplantation, mice were infected by oral gavage with 1×10^7 colony forming units every other day for 3 days. […]
Single cell preparation and FACS analysis. […] All single cell suspensions were stained with FITC-labeled anti-CD34, PE-labeled […] as well as Cy5-labeled anti-CD3 and anti-B220 antibodies (Pharmingen) and analyzed using a FACScan™ flow cytometer. […]

Experiment [2] concerns tumor development induced by IL-1. The conditions noted are these: release of 25 ng per day from microencapsulated cells, mice; cited from earlier work.
The test system of experiment [3] is C57BL/6J mice and Balb/c mice. The experiment in a line: Continuous infusion of IL-1β into mice (preliminary experiment). Format: in vivo, mouse. The conditions noted are these: continuous infusion (13 days).

On to “IL-1RA: IL-1 receptor antagonist; binds IL-1 receptor type I without transmitting an activation signal”, for which the fibrosarcoma growth result with fibrosarcoma is “inhibited”. In the experiment on B16 melanoma, the metastases result is reported as “reduced” and the survival rates entry is “increased”. Also, in experiment [1], the development of gastritis entry is “reduces”; the “mobilization of hematopoietic stem cells circulation and stomach tissues” value is listed as “reduces”. In experiment [2], the angiogenesis result is “reduced” and the tumor development result is recorded as “inhibited”.

B1: IL-1β: proinflammatory pleiotropic cytokine, infused or injected into mice (protein, UniProt P10749 118-269, looked up)
Interleukin-1 beta: VPIRQLHYRLRDEQQKSLVLSDPYELKALHLNGQNINQQVIFSMSFVQGEPSNDKIPVALGLKGKNLYLSCVMKDGTPTLQLESVDPKQYPKKKMEKRFVFNKIEVKSKVEFESAEFPNWYISTSQAEHKPVFLGNNSGQDIIDFTMESVSS
For B1, the liver metastasis result in the experiment on B16 melanoma (intrasplenic injection) is on record as “increased”. Also, the gastric atrophy result in experiment [3] is “caused gastric atrophy”.
